As a reminder, the pIC50 is the negative decadic logarithm of the IC50, by convention in mol/L. Lower therefore signals a large IC50.

For experiment [1], the system named is human colon cancer cell HT-29. Description: Colon cancer cell HT-29 growth suppressive action in vitro. It is filed as cell-based. Conditions: 72 h, HT-29 cells, 3 days culture, SRB staining of cell protein. The method, then:
A cell suspension (100 μL, 3,000 cells/well) of human colon cancer cell HT-29 (purchased from ATCC) was plated in a 96-well plate, and the cells were cultured at 37° C. in a 5% carbon dioxide gas incubator. The next day, 2-fold serial dilution of each test compound solution (diluted from maximum concentration 20 μM) (100 μL) was added, and the cells were cultured for 3 days. The culture medium containing the test compound was removed, and the cells were washed with phosphate buffer (PBS). A 50% trichloroacetic acid solution was added to the final concentration of 10% (v/v), and the mixture was stood overnight at 4° C., whereby the cells were fixed to the plate. Then, a dye SRB 0.4% (w/v) solution (dissolved in 1% acetic acid) was added at 50 μl/well, whereby the cell protein was fixed and stained (Skehan et al., Journal Of National Cancer Institute, vol. 82, pp. 1107-1112, 1990). The cells were washed 3 times with 1% acetic acid solution (200 μL/well), and 100 μL of an extract (10 mM Tris buffer) was added to extract the dye. The absorbance at an absorption wavelength […] was measured, and cell amount was measured as a protein amount. Taking the protein amount of the control group free of the test compound solution as 100%, the proportion of the residual protein amount of each treatment group was determined and the concentration of the compound necessary for suppressing the residual cell amount to 50% of the control (IC50 value) was calculated.

In experiment [2] the test system is Colon Cancer Cell HT-29 Intracellular MEK Phosphorylation. Nature of the experiment: Colon cancer cell HT-29 intracellular MEK phosphorylation inhibitory action in vitro. Conditions: Homo sapiens; HT-29 cells, 2 hr treatment; phosphorylated MEK1/2 (Ser217/221) by Western blot. The class given is cell-based. The protocol: A cell suspension (500 μL) of human colon cancer cell HT-29 was plated in a 48-well plate (100,000 cells/well), and the cells were cultured overnight at 37° C. in the presence of 5% CO2, treated with a test compound (250 μL/well) diluted in 3-fold dilution series and cultured for two more hours. After 2 hr, the culture medium containing the test compound was removed, and the cells were lysed with SDS sample buffer (100 μL/well) and heated at 95° C. for 5 min. Thereafter, the cells were applied to SDS-PAGE, and the protein was transferred onto Sequi-Blot™ PVDF Membrane (Bio-Rad) by the Western blot method. The cells were blocked with a block-Ace solution (Snow Brand Milk Products Co., Ltd) dissolved in phosphate buffer to 5% W/V, and reacted overnight with anti-phosphorylated MEK1/2 (Ser217/221) (Cell signaling #9121) diluted 1000-fold with phosphate buffer containing 0.4% block-Ace. The membrane was washed with phosphate buffer containing 0.1% Tween 20 (Wako Pure Chemical Industries, Ltd.), and reacted at room temperature for 1 hr with HRP labeled […] (Cell signaling #7074) diluted 1000-fold with phosphate buffer containing 0.4% block-Ace. The membrane was washed in the same manner as above, chemical luminescence of a phosphorylated MEK1/2 protein labeled with the antibody, which was caused by ECL-plus Detection Reagent (Amersham bioscience), was detected by Luminescent Image Analyzer LAS-1000 (FUJIFILM Corporation). Taking the luminescence of the control group free of the test compound as 100%, the concentration (IC50 value) of the compound necessary for inhibiting the residual luminescence to 50% of the control group was calculated.

Experiment [3] concerns the target T1, BRAF (V600E) kinase (Homo sapiens, UniProt P15056, V600E).
T1 construct: Flag (N); made in house; host or cells: SF-21 insect cells, recombinant baculovirus BAC-V600E
Nature of the experiment: Determination of BRAF (V600E) kinase inhibitory activity. It is filed as biochemical. To be noted: 1.0 μM test compound; BRAF (V600E) enzyme, GST-MEK1 (K96R) substrate, [γ-32P]ATP; read-out: Inhibitory rate (%) at 1.0 μM. The method, then: Human BRAF gene was cloned by PCR using human Testis cDNA library (Clontech) as a template. The primer used for PCR was prepared from base sequence (Genbank Accession No.: NM_004333) information of BRAF gene by adding a base sequence encoding flag peptide and a recognition sequence of the restriction enzyme to area encoding the BRAF kinase domain region, so that the protein contains an N-terminal. Flag. The primer base sequence is shown below.
The PCR reaction was conducted using Pyrobest (Takara Shuzo Co., Ltd). The obtained PCR product was electrophoresed on agarose gel (1%), the DNA fragment amplified by PCR was recovered from the gel, and then digested with restriction enzymes EcoRI and SalI. The DNA treated with the restriction enzymes was electrophoresed on agarose gel (1%), and the obtained DNA fragment was recovered. The recovered DNA fragment was ligated to plasmid pFASTBAC1 (Invitrogen) digested with restriction enzymes EcoRI and SalI to give expression plasmid pFB-BRAF, and the base sequence of the insert fragment was confirmed. In addition, mutation was introduced into V600E using a Quick change Site Directed Mutagenesis kit (Stratagene). The base sequences of the primers used are shown in the following.
The obtained plasmid was sequenced to confirm the introduction of mutation into V600E. The DNA was digested with restriction enzymes EcoRI and SalI, DNA treated with the restriction enzymes was electrophoresed on agarose gel (1%), and the obtained DNA fragment was recovered. The recovered DNA fragment was ligated to plasmid pFASTBAC1 (Invitrogen) digested with restriction enzymes EcoRI and SalI to give expression plasmid pFB-V600E.
Using BAC-TO-BAC Baculovirus Expression System (Invitrogen), virus stock BAC-V600E of recombinant baculovirus was prepared.
SF-21 cells were sown at 1×10^6 cells/mL to Sf-900II SFM medium (1 L, Invitrogen) containing 10% fetal bovine serum (Trace), 50 mg/L Gentamicin (Invitrogen) and 0.1% Pluronic F-68 (Invitrogen), and shaking culture was performed using a 2 L volume Erlenmeyer flask at 27° C., 100 rpm. After culturing for 24 hr, recombinant baculovirus BAC-V600E (13.4 mL) was added to the mixture, and the mixture was further cultured for 3 days. The culture medium was centrifuged at 2,000 rpm for 5 min to give virus-infected cells. The infected cells were washed with a phosphate buffered saline (Invitrogen), centrifuged under the same conditions, and the cells were preserved at −80° C. The cryopreserved cells were thawed in ice, suspended in buffer A (50 mM Tris buffer (30 mL, pH 7.4) containing 20% glycerol, 0.15 M NaCl) supplemented with Complete Protease Inhibitor (Boehringer), and ruptured 3 times with a Polytron homogenizer (Kinematica) at 20,000 rpm for 30 sec. The ruptured medium was clarified by centrifugation at 40,000 rpm for 30 min and filtered with a 0.45 μm filter. The filtrate was passed through a column packed with Anti-FLAG M2 Affinity Gel (4 mL, Sigma) at a flow rate of about 0.5 mL/min. The column was washed with buffer A, and eluted with buffer A containing 100 μg/mL of FLAG peptide. The buffer of this eluate was exchanged using NAP25 column (Amersham Bioscience) equilibrated with buffer A and the fractions were cryopreserved at −80° C.
A test compound (2.5 μL) dissolved in dimethyl sulfoxide (DMSO) was added to 37.5 μL of a reaction mixture (25 mM HEPES (pH 7.5), 10 mM magnesium acetate, 1 mM dithiothreitol) containing BRAF (V600E) enzyme (30 ng) and recombinant type protein GST-MEK1 (K96R) 250 ng, and the mixture was incubated at room temperature for 10 min. ATP solution (10 μL, 2.5 μM ATP, 0.1 μCi [γ-^32P]ATP) was added to the obtained mixture, and the mixture was reacted at room temperature for 20 min. The reaction was quenched by adding 50 μL of ice-cooled. 20% trichloroacetic acid (Wako Pure Chemical Industries, Ltd.) to the reaction mixture. […]

pIC50: −log10 of the molar value.

T1 sequence (P15056 457-717 V600E limits assumed): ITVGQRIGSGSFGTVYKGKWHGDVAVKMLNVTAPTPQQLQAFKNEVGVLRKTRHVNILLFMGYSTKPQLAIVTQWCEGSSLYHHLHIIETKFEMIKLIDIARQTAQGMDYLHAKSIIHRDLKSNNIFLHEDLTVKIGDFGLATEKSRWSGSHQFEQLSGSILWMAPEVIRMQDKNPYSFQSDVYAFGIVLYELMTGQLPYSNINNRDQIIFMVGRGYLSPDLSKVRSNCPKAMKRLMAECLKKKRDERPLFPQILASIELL

Take `O=C(Nc1cccc(Oc2ccc3nc(NC(=O)C4CC4)sc3c2)c1)c1cccc(C(F)(F)F)c1` [Example A2, N-[3-({2-[(cyclopropylcarbonyl)amino]-1,3-benzothiazol-6-yl}oxy)phenyl]-3-(trifluoromethyl)benzamide]: the negative logarithm of the IC50 (pIC50) in experiment [1] is more than 6.30.

Consider `CN1CCN(CC(=O)Nc2nc3ccc(Oc4cccc(NC(=O)c5cccc(C6(C#N)CC6)c5)c4)cc3s2)CC1` [Example A16, 3-(1-cyanocyclopropyl)-N-{3-[(2-{[(4-methylpiperazin-1-yl)acetyl]amino}-1,3-benzothiazol-6-yl)oxy]phenyl}benzamide], for which the pIC50 in experiment [2] was more than 6.30.

The compound `CC(C)(C#N)c1cccc(C(=O)Nc2cccc(Oc3ccc4nc(NC(=O)C5CC5)oc4c3)c2)c1` [Example B3, 3-(1-cyano-1-methylethyl)-N-[3-({2-[(cyclopropylcarbonyl)amino]-1,3-benzooxazol-6-yl}oxy)phenyl]benzamide] showed a negative logarithm of the IC50 (pIC50) in experiment [2] of more than 6.30.

For `Cc1ccc(Oc2ccc3nc(NC(=O)CO)sc3c2)cc1NC(=O)c1cccc(C2(C#N)CC2)c1` [Example A6, 3-(1-cyanocyclopropyl)-N-(5-{[2-(glycoloylamino)-1,3-benzothiazol-6-yl]oxy}-2-methylphenyl)benzamide], the inhibition at 1 µM in experiment [3] was found to be 99%.

In turn, `CC(=O)Nc1nc2ccc(Oc3cccc(NC(=O)c4cccc(C(C)(C)C#N)c4Cl)c3)cc2s1` [Example A41, N-(3-{[2-(acetylamino)-1,3-benzothiazol-6-yl]oxy}phenyl)-2-chloro-3-(1-cyano-1-methylethyl)benzamide] gave a pIC50 in experiment [1] of more than 6.30.

Compound `CC(C)(C#N)c1cccc(C(=O)Nc2cccc(Oc3ccc4nc(NC(=O)CO)sc4c3)c2)c1` [Example A14, 3-(1-cyano-1-methylethyl)-N-(3-{[2-(glycoloylamino)-1,3-benzothiazol-6-yl]oxy}phenyl)benzamide] had a pIC50 in experiment [2] of more than 6.30.

On to `Cc1ccc(Oc2ccc3nc(NC(=O)C4CC4)sc3c2)cc1NC(=O)c1cccc(C(C)(C)C#N)c1` [Example A7, 3-(1-cyano-1-methylethyl)-N-[5-({2-[(cyclopropylcarbonyl)amino]-1,3-benzothiazol-6-yl}oxy)-2-methylphenyl]benzamide], for which, in experiment [2], the pIC50 was more than 6.30.

In experiment [2], `O=C(CO)Nc1nc2ccc(Oc3cccc(C(=O)Nc4ccc(C(F)(F)F)cc4)c3)cc2s1` [Example A26, 3-{[2-(glycoloylamino)-1,3-benzothiazol-6-yl]oxy}-N-[4-(trifluoromethyl)phenyl]benzamide] had a pIC50 of more than 6.30.

Turning to `N#CC1(c2cccc(C(=O)Nc3cccc(Oc4ccc5nc(NC(=O)C6CC6)sc5c4)c3)c2)CC1` [Example A1, 3-(1-cyanocyclopropyl)-N-[3-({2-[(cyclopropylcarbonyl)amino]-1,3-benzothiazol-6-yl}oxy)phenyl]benzamide], in experiment [3], the inhibition at 1 µM was 98%.

Turning to `N#CC1(c2cccc(C(=O)Nc3cccc(Oc4ccc5nc(NC(=O)c6cocn6)sc5c4)c3)c2)CC1` [Example A15, N-[6-(3-{[3-(1-cyanocyclopropyl)benzoyl]amino}phenoxy)-1,3-benzothiazol-2-yl]-1,3-oxazole-4-carboxamide], the inhibition at 1 µM in experiment [3] was 100%.

Consider `O=C(Nc1ccc(C(F)(F)F)cc1)c1cccc(Oc2ccc3nc(NC(=O)C4CC4)sc3c2)c1` [Example A25, 3-({2-[(cyclopropylcarbonyl)amino]-1,3-benzothiazol-6-yl}oxy)-N-[4-(trifluoromethyl)phenyl]benzamide], for which the inhibition at 1 µM in experiment [3] was found to be 100%.

As for `O=C(Nc1cccc(Oc2ccc3nc(NC(=O)C4CC4)oc3c2)c1)c1cccc(C(F)(F)F)c1` [Example B1, N-[3-({2-[(cyclopropylcarbonyl)amino]-1,3-benzooxazol-6-yl}oxy)phenyl]-3-(trifluoromethyl)benzamide], the inhibition at 1 µM in experiment [3] came to 100%.

`COc1ccc(NC(=O)c2cccc(C(C)(C)C#N)c2)cc1Oc1ccc2nc(NC(=O)C3CC3)sc2c1` [Example A21, 3-(1-cyano-1-methylethyl)-N-[3-({2-[(cyclopropylcarbonyl)amino]-1,3-benzothiazol-6-yl}oxy)-4-methoxyphenyl]benzamide]: the inhibition at 1 µM in experiment [3] turned out to be 98%. In addition, the pIC50 in experiment [2] is more than 6.30.

As to `Cc1ccc(Oc2ccc3nc(NC(=O)CO)sc3c2)cc1NC(=O)c1cccc(C(C)(C)C#N)c1` [Example A10, 3-(1-cyano-1-methylethyl)-N-(5-{[2-(glycoloylamino)-1,3-benzothiazol-6-yl]oxy}-2-methylphenyl)benzamide], the pIC50 in experiment [2] is more than 6.30.

As to `O=C(Nc1cccc(Oc2ccc3nc(NC(=O)C4CC4)[nH]c3c2)c1)c1cccc(C(F)(F)F)c1` [Example C1, N-[3-({2-[(cyclopropylcarbonyl)amino]-1H-benzimidazol-6-yl}oxy)phenyl]-3-(trifluoromethyl)benzamide], the inhibition at 1 µM in experiment [3] was 99%.

As to `O=C(Nc1cccc(C(F)(F)F)c1)c1cccc(Oc2ccc3nc(NC(=O)C4CC4)sc3c2)c1` [Example A29, 3-({2-[(cyclopropylcarbonyl)amino]-1,3-benzothiazol-6-yl}oxy)-N-[3-(trifluoromethyl)phenyl]benzamide], the inhibition at 1 µM in experiment [3] is 100%.
